The source made the active and inactive calls. No rule for the calls is given here. Bounds are passed on as bounds.

The target in the assay is Lethal factor (Bacillus anthracis) (UniProt P15917). Briefly: Bacillus anthracis LF protease inhibitors, dose response, biochemical, multiplex microsphere (AID 720672). The following applies: multiplex microsphere LF protease substrate cleavage, flow cytometry. (Flow cytometry measures light scatter and fluorescence of single cells or particles in a stream.)
Chain of Lethal factor (Bacillus anthracis) (P15917 whole entry, looked up): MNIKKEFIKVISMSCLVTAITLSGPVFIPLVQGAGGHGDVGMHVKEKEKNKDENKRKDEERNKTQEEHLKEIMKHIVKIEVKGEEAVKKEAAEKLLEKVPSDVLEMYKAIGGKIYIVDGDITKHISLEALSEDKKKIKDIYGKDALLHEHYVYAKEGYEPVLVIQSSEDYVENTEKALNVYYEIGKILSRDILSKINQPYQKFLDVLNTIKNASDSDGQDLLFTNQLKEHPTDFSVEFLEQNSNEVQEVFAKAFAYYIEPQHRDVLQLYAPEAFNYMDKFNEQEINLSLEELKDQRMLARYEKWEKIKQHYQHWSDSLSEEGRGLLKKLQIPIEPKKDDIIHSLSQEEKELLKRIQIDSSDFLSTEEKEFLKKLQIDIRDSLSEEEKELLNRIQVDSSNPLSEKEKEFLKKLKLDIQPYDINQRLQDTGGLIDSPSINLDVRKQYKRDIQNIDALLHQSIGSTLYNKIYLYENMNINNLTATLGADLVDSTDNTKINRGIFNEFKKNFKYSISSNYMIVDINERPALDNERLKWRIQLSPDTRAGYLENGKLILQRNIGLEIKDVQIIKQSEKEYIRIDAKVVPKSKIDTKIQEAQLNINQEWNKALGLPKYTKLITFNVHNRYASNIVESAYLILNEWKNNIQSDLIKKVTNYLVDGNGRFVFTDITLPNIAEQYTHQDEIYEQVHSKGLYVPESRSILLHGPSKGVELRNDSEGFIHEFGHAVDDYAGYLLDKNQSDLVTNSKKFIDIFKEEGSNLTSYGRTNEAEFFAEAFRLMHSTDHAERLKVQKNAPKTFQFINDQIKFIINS
What is called IC50 is the midpoint of a concentration-inhibition curve. Turning to `COc1ccc(-c2nc3nc(-c4cccc(OC)c4)cn3nc2-c2ccc(OC)cc2)cc1`, the IC50 is 10.1 µM. The result for `CCNC(=S)Nc1ccc2nc(-c3ccccc3)c(-c3ccccc3)nc2c1` reads > 20 µM (inactive); that for `COc1ccccc1-c1cn2nc(-c3ccccc3)c(-c3ccccc3)nc2n1`, > 20 µM (inactive); that for `O=C(Nc1ccc2nc(-c3ccccc3)c(-c3ccccc3)nc2c1)C1CC1`, > 20 µM (inactive). The result for `CC(C)(C)C(=O)Nc1ccc2nc(-c3ccccc3)c(-c3ccccc3)nc2c1` reads > 20 µM (inactive); that for `CC(C)OC(=O)Nc1ccc2nc(-c3cccs3)c(-c3cccs3)nc2c1`, > 20 µM (inactive).

As to `CCOC(=O)Nc1ccc2nc(-c3ccccc3)c(-c3ccccc3)nc2c1`, the IC50 is > 20 µM (inactive). The result for `Cc1ccc(-c2nc3nc(-c4cccc(F)c4)cn3nc2-c2ccc(C)cc2)cc1` reads 3.7 µM; that for `CS(=O)(=O)c1ccc(-c2cn3nc(-c4ccc(F)cc4)c(-c4ccc(F)cc4)nc3n2)cc1`, > 20 µM (inactive); that for `CCNC(=O)Nc1ccc2nc(-c3ccccc3)c(-c3ccccc3)nc2c1`, > 20 µM (inactive). The figure for `Clc1ccc(-c2cn3nc(-c4ccccc4)c(-c4ccccc4)nc3n2)c(Cl)c1` is > 20 µM (inactive); for `CS(=O)(=O)c1ccc(-c2cn3nc(-c4ccccc4)c(-c4ccccc4)nc3n2)cc1` it is > 20 µM (inactive).

Take `FC(F)(F)Oc1ccc(-c2cn3nc(-c4ccccc4)c(-c4ccccc4)nc3n2)cc1`: the IC50 was 17.9 µM. The result for `CCCCOC(=O)Nc1ccc2nc(-c3ccccc3)c(-c3ccccc3)nc2c1` reads > 20 µM (inactive); that for `CCC(=O)Nc1ccc2nc(-c3cccs3)c(-c3cccs3)nc2c1`, > 20 µM (inactive); that for `COc1ccc(-c2cn3nc(-c4ccc(F)cc4)c(-c4ccc(F)cc4)nc3n2)cc1`, 6.5 µM. The figure for `Fc1ccc(-c2nc3nc(-c4ccc(OC(F)(F)F)cc4)cn3nc2-c2ccc(F)cc2)cc1` is > 20 µM (inactive). As for `O=C(Nc1ccc2nc(-c3cccs3)c(-c3cccs3)nc2c1)C1CCC1`, the IC50 was > 20 µM (inactive).

Turning to `Cc1ccc(-c2nc3nc(-c4ccc(S(C)(=O)=O)cc4)cn3nc2-c2ccc(C)cc2)cc1`, the IC50 is > 20 µM (inactive). The result for `CCCS(=O)(=O)Nc1ccc2nc(-c3ccccc3)c(-c3ccccc3)nc2c1` reads > 20 µM (inactive); that for `COc1ccc(-c2cn3nc(-c4ccc(F)cc4)c(-c4ccc(F)cc4)nc3n2)c(OC)c1`, 2.9 µM. The figure for `O=C(Nc1ccc2nc(-c3cccs3)c(-c3cccs3)nc2c1)C1CCCC1` is > 20 µM (inactive). As to `CC(Oc1ccccc1)C(=O)Nc1ccc2nc(-c3ccccc3)c(-c3ccccc3)nc2c1` (configuration not stated), the IC50 is > 20 µM (inactive). The figure for `CC(C)CS(=O)(=O)Nc1ccc2nc(-c3ccccc3)c(-c3ccccc3)nc2c1` is > 20 µM (inactive); for `COc1ccc(-c2cn3nc(-c4ccc(C)cc4)c(-c4ccc(C)cc4)nc3n2)cc1` it is > 20 µM (inactive). The figure for `COc1ccc(-c2nc3nc(-c4ccc(OC)cc4OC)cn3nc2-c2ccc(OC)cc2)cc1` is > 20 µM (inactive); for `COc1ccc(-c2nc3nc(-c4ccc(C)cc4)cn3nc2-c2ccc(OC)cc2)cc1` it is > 20 µM (inactive); for `Fc1ccc(-c2cn3nc(-c4ccc(F)cc4)c(-c4ccc(F)cc4)nc3n2)cc1` it is 4 µM. The result for `O=C(Nc1ccc2nc(-c3ccccc3)c(-c3ccccc3)nc2c1)C1CCC1` reads > 20 µM (inactive). Turning to `Fc1ccc(-c2nc3nc(-c4ccccc4)cn3nc2-c2ccc(F)cc2)cc1`, the IC50 was 9.6 µM. The figure for `Fc1ccc(-c2nc3nc(-c4cccc(F)c4)cn3nc2-c2ccc(F)cc2)cc1` is 6.7 µM.

`COC(=O)Nc1ccc2nc(-c3ccccc3)c(-c3ccccc3)nc2c1`: the IC50 is > 20 µM (inactive). The figure for `O=C(Nc1ccc2nc(-c3cccs3)c(-c3cccs3)nc2c1)C1CC1` is > 20 µM (inactive); for `Cc1ccc(-c2cn3nc(-c4ccc(C)cc4)c(-c4ccc(C)cc4)nc3n2)cc1` it is 5.1 µM; for `Fc1cccc(-c2cn3nc(-c4ccccc4)c(-c4ccccc4)nc3n2)c1` it is 11.5 µM. The figure for `CC(C)CS(=O)(=O)Nc1ccc2nc(-c3cccs3)c(-c3cccs3)nc2c1` is > 20 µM (inactive); for `CCCOC(=O)Nc1ccc2nc(-c3cccs3)c(-c3cccs3)nc2c1` it is > 20 µM (inactive). The result for `COc1ccc(-c2nc3nc(-c4cccc(F)c4)cn3nc2-c2ccc(OC)cc2)cc1` reads 5.5 µM; that for `CC(C)OC(=O)Nc1ccc2nc(-c3ccccc3)c(-c3ccccc3)nc2c1`, > 20 µM (inactive); that for `CCCS(=O)(=O)Nc1ccc2nc(-c3cccs3)c(-c3cccs3)nc2c1`, > 20 µM (inactive).

Turning to `CCS(=O)(=O)Nc1ccc2nc(-c3ccccc3)c(-c3ccccc3)nc2c1`, the IC50 was > 20 µM (inactive).

In the case of `CCC(=O)Nc1ccc2nc(-c3ccccc3)c(-c3ccccc3)nc2c1`, the IC50 was > 20 µM (inactive). In the case of `COc1cccc(-c2cn3nc(-c4ccc(F)cc4)c(-c4ccc(F)cc4)nc3n2)c1`, the IC50 is 7.5 µM. With `CC(=O)Nc1ccc2nc(-c3ccccc3)c(-c3ccccc3)nc2c1`, the IC50 was > 20 µM (inactive). The result for `Cc1ccc(-c2nc3nc(-c4ccc(OC(F)(F)F)cc4)cn3nc2-c2ccc(C)cc2)cc1` reads > 20 µM (inactive); that for `O=C(Nc1ccc2nc(-c3ccccc3)c(-c3ccccc3)nc2c1)C1CCCC1`, > 20 µM (inactive); that for `O=S(=O)(Nc1ccc2nc(-c3cccs3)c(-c3cccs3)nc2c1)C1CC1`, > 20 µM (inactive).

On to `Cc1ccc(-c2cn3nc(-c4ccc(F)cc4)c(-c4ccc(F)cc4)nc3n2)cc1`, for which the IC50 is 7.2 µM. Consider `N#Cc1ccc(-c2cn3nc(-c4ccc(F)cc4)c(-c4ccc(F)cc4)nc3n2)cc1`, for which the IC50 was > 20 µM (inactive).

For `O=C(Nc1ccc2nc(-c3ccccc3)c(-c3ccccc3)nc2c1)C1CCCCC1`, the IC50 was > 20 µM (inactive).

For the molecule `CC(C)(C)NC(=O)Nc1ccc2nc(-c3ccccc3)c(-c3ccccc3)nc2c1`, the IC50 is > 20 µM (inactive).

For the molecule `COc1ccc(-c2nc3nc(-c4ccccc4OC)cn3nc2-c2ccc(OC)cc2)cc1`, the IC50 is 6.1 µM.

As to `COc1cccc(-c2cn3nc(-c4ccccc4)c(-c4ccccc4)nc3n2)c1`, the IC50 is 15.2 µM. The result for `COc1ccc(-c2nc3nc(-c4ccc(C#N)cc4)cn3nc2-c2ccc(OC)cc2)cc1` reads > 20 µM (inactive). Consider `CCOC(=O)Nc1ccc2nc(-c3cccs3)c(-c3cccs3)nc2c1`, for which the IC50 is > 20 µM (inactive). The result for `N#Cc1ccc(-c2cn3nc(-c4ccccc4)c(-c4ccccc4)nc3n2)cc1` reads > 20 µM (inactive); that for `COC(=O)Nc1ccc2nc(-c3cccs3)c(-c3cccs3)nc2c1`, > 20 µM (inactive).

For `COc1ccc(-c2nc3nc(-c4ccc(F)cc4)cn3nc2-c2ccc(OC)cc2)cc1`, the IC50 was 3.1 µM. The result for `COc1ccccc1-c1cn2nc(-c3ccc(F)cc3)c(-c3ccc(F)cc3)nc2n1` reads 5.4 µM; that for `CCNC(=O)Nc1ccc2nc(-c3cccs3)c(-c3cccs3)nc2c1`, 16.3 µM. `O=C(Nc1ccc2nc(-c3cccs3)c(-c3cccs3)nc2c1)OCc1ccccc1`: the IC50 is > 20 µM (inactive).

As to `Cc1ccc(-c2nc3nc(-c4ccccc4)cn3nc2-c2ccc(C)cc2)cc1`, the IC50 was 6.8 µM. The result for `COc1ccccc1-c1cn2nc(-c3ccc(C)cc3)c(-c3ccc(C)cc3)nc2n1` reads 12.9 µM. Consider `COc1ccc(-c2nc3nc(-c4ccc(OC(F)(F)F)cc4)cn3nc2-c2ccc(OC)cc2)cc1`, for which the IC50 is 3.7 µM. Take `COc1ccc(-c2cn3nc(-c4ccc(C)cc4)c(-c4ccc(C)cc4)nc3n2)c(OC)c1`: the IC50 was > 20 µM (inactive). The result for `Fc1ccc(-c2cn3nc(-c4ccccc4)c(-c4ccccc4)nc3n2)cc1` reads > 20 µM (inactive); that for `COc1ccc(-c2cn3nc(-c4ccc(OC)cc4)c(-c4ccc(OC)cc4)nc3n2)cc1`, > 20 µM (inactive). For `COc1cccc(-c2cn3nc(-c4ccc(C)cc4)c(-c4ccc(C)cc4)nc3n2)c1`, the IC50 was 4.3 µM. `CCCOC(=O)Nc1ccc2nc(-c3ccccc3)c(-c3ccccc3)nc2c1`: the IC50 is > 20 µM (inactive).

With `Cc1ccc(-c2nc3nc(-c4ccc(F)cc4)cn3nc2-c2ccc(C)cc2)cc1`, the IC50 was 5.9 µM. The figure for `O=C(Nc1ccc2nc(-c3ccccc3)c(-c3ccccc3)nc2c1)NC1CCCC1` is > 20 µM (inactive). The figure for `CCCNC(=O)Nc1ccc2nc(-c3ccccc3)c(-c3ccccc3)nc2c1` is > 20 µM (inactive).

Regarding `CC(C)NC(=O)Nc1ccc2nc(-c3cccs3)c(-c3cccs3)nc2c1`, the IC50 was > 20 µM (inactive). As to `CC(C)NC(=O)Nc1ccc2nc(-c3ccccc3)c(-c3ccccc3)nc2c1`, the IC50 was > 20 µM (inactive). The result for `CCCCOC(=O)Nc1ccc2nc(-c3cccs3)c(-c3cccs3)nc2c1` reads 16.4 µM; that for `COc1ccc(-c2nc3nc(-c4ccc(S(C)(=O)=O)cc4)cn3nc2-c2ccc(OC)cc2)cc1`, > 20 µM (inactive).

`O=S(=O)(Nc1ccc2nc(-c3ccccc3)c(-c3ccccc3)nc2c1)C1CC1`: the IC50 was > 20 µM (inactive). With `COc1ccc(-c2nc3nc(-c4ccccc4)cn3nc2-c2ccc(OC)cc2)cc1`, the IC50 was 6.3 µM. The figure for `Cc1ccc(-c2nc3nc(-c4ccc(C#N)cc4)cn3nc2-c2ccc(C)cc2)cc1` is > 20 µM (inactive); for `O=C(Nc1ccc2nc(-c3cccs3)c(-c3cccs3)nc2c1)NC1CCCC1` it is > 20 µM (inactive); for `COc1ccc(-c2cn3nc(-c4ccccc4)c(-c4ccccc4)nc3n2)c(OC)c1` it is > 20 µM (inactive). The figure for `O=C(Nc1ccc2nc(-c3ccccc3)c(-c3ccccc3)nc2c1)OCc1ccccc1` is > 20 µM (inactive).
